Laboratory results: patent US20030005484A1, “Microbiocidal and pesticidal aromatic aldehydes” (ProGuard, Inc., priority 1994, published 2003)

What was measured:
aphids = aphids on sprayed roses; format: in vivo; details: roses sprayed with emulsion of cinnamic aldehyde and sodium bicarbonate, concomitantly saponin
Stubby Root nematode = assay: vineyard grape vines, nematode infestation: stubby root; format: in vivo
Method: The subject formulations were tested for ability to reduce grape vine infestation by root knot, ring, stubby root, and roll lesion nematodes. Grape vines (Harmony rootstock) in a vinyard were treated with 1000 ppm or 3000 ppm cinnamaldehyde in 2% Tween 80, the commercial anti-nematode agent Nemacur, or a formulation blank. The extent of nematode infestation was determined at the time of treatment and at 30 and 60 days post-treatment.

grape phylloxera eggs = assay: whole plant or invertebrate; details: for eggs that did not hatch completely (IH) / nymphs that died in the shell (DIS): 7 days
Method: Mixed age groups of 60 grape phylloxera eggs were established on filter paper (Whatman #1, 5.5 cm circles) in 50×9 mm sealed plastic petri dishes treated with 100 μl of solution. A selected concentration of a test formulation of 400 μl was added to the filter disk and the dish closed with the petri dish cover and placed in a plastic container box. After 6 hours, the box was placed in an environmental chamber at 24° C. in the dark. The eggs were placed in groups of 10. After one week, the percentage of hatch is determined. In an initial test, doses from 0.1 to 25,000 ppm cinnamic aldehyde in 6% NaHCO3 and 2% Tween 80 were evaluated with a single group of eggs at each dosage. Three replicates of the experiment were performed. […] LD50 and LD95 were determined by probit analysis.
Grape phylloxera eggs were treated with cinnamaldehyde (CNMA) in a 6% NaHCO3, 2% Tween-80 formulation in a laboratory bioassay. Mortality of the eggs was indicated by failure of the egg shell to split. […] Leaves of one-year-old greenhouse Vitis vinifera cultivar Merlot vines heavily infested with grape phylloxera were sprayed to run-off with a CNMA treatment using the same formulation. […] Roots taken from plants 1, 2 and 5 weeks after CNMA or other treatments were placed in Petri dish bioassays and infested with untreated phylloxera eggs.
Eggs of various age classes were placed on Whatman #1 filter paper moistened with enough treatment solution to form a meniscus about halfway up the sides of the eggs. The pieces of filter paper with eggs were maintained in sealed plastic Petri dishes at […] until they were 7 days old and then hatched individuals were counted. Hatch was considered successful if the […]

[1] = test system: melon aphid (Aphis gossypli Glover); assay: melon aphid bioassay with Storax formulations; format: in vivo, Aphis gossypii; details: previous bioassays; plants sprayed to run-off at 1,000 ppm
Method: The purpose of this study was to determine the effect of STORAX incorporated into various formulations to evaluate its potential use as a synergist. Initial bioassays were conducted using STORAX at 0.6%, 1.0%, 2.0% with Tween 80 (1%) only. A second bioassay was conducted to evaluate the efficacy of STORAX (at 0.6%) alone and STORAX (at 0.6%) plus cinnamic aldehyde (at 0.1%) or alpha hexyl cinnamaldehyde (at 0.1%). […] STORAX combined with cinnamic aldehyde or α-hexyl cinnamic aldehyde reduced the time course of lethality and increases mortality. Moreover, the cinnamic aldehyde-STORAX formulation approaches the lethal time (LT) required at 2 h for kill of certain virus transmitting pests (e.g., brown citrus aphid).

phylloxera Biotype A = assay: planter / field box vines, leaf spray, phylloxera population on roots; format: in vivo, Daktulosphaira vitifoliae; details: Chardonnay (2 treatments), two weeks
grape phylloxera = assay: reinoculation bioassay of roots excised from leaf-treated vines; format: in vivo, Daktulosphaira vitifoliae; details: for phylloxera counted: 1st instar / phylloxera counted: 2nd instar / phylloxera counted: 3rd instar / phylloxera counted: 4th instar / phylloxera counted: Adults / phylloxera counted: Eggs: roots taken 5 weeks after treatment, 25 day bioassay
Text: […] For this bioassay, root sections were inoculated with 20 eggs and the roots maintained as the original colonies were maintained (see description above). After 25 days, the number of individual phylloxera of each age class were counted.

[2] = 10 ppm in 6% NaHCO3, 2% Tween 80
[3] = 100 ppm in 6% NaHCO3, 2% Tween 80

O=C/C=C/c1ccccc1 [cinnamic aldehyde]
aphids on treated plants (aphids): remained free of aphids | Stubby Root, nematodes per 250 cc soil (Stubby Root nematode; 1000 ppm in 2% Tween 80, 30 days post-treatment): 45 per 250 cc soil | Stubby Root, nematodes per 250 cc soil (Stubby Root nematode; 1000 ppm in 2% Tween 80, 60 days post-treatment): 36.2 per 250 cc soil | Stubby Root, nematodes per 250 cc soil (Stubby Root nematode; 1000 ppm in 2% Tween 80, day 0 (time of treatment)): 13.8 per 250 cc soil | Stubby Root, nematodes per 250 cc soil (Stubby Root nematode; 3000 ppm in 2% Tween 80, 30 days post-treatment): 8.8 per 250 cc soil | Stubby Root, nematodes per 250 cc soil (Stubby Root nematode; 3000 ppm in 2% Tween 80, 60 days post-treatment): 43.5 per 250 cc soil | Stubby Root, nematodes per 250 cc soil (Stubby Root nematode; 3000 ppm in 2% Tween 80, day 0 (time of treatment)): 0.8 per 250 cc soil | 7 day EC50, egg mortality (failure of the egg shell to split) (grape phylloxera eggs; 6% NaHCO3, 2% Tween-80 formulation): 115 ppm | eggs that did not hatch completely (IH) (grape phylloxera eggs; [2]): 100% | nymphs that died in the shell (DIS) (grape phylloxera eggs; [2]): none died in the shell | eggs that did not hatch completely (IH) (grape phylloxera eggs; [3]): 12% | nymphs that died in the shell (DIS) (grape phylloxera eggs; [3]): 88% | nymphs that died in the shell (DIS) (grape phylloxera eggs; 100 ppm in 6% NaHCO3, 2% Tween 80 plus 0.86 ml of 10 brix saponin solution): 93% | nymphs that died in the shell (DIS) (grape phylloxera eggs; 5000 ppm aldehyde in 6% NaHCO3, 2% Tween 80): all nymphs died in the shell | Approximate Percent Mortality, egg test (grape phylloxera eggs; CNMA 100 ppm, Days of Treatment 1): 8% | Approximate Percent Mortality, egg test (grape phylloxera eggs; CNMA 100 ppm, Days of Treatment 2): 0% | Approximate Percent Mortality, egg test (grape phylloxera eggs; CNMA 100 ppm, Days of Treatment 3): 0% | Approximate Percent Mortality, egg test (grape phylloxera eggs; CNMA 100 ppm, Days of Treatment 4): 6% | Approximate Percent Mortality, egg test (grape phylloxera eggs; CNMA 100 ppm, Days of Treatment 5): 25% | Approximate Percent Mortality, egg test (grape phylloxera eggs; CNMA 180 ppm, Days of Treatment 1): 100% | Approximate Percent Mortality, egg test (grape phylloxera eggs; CNMA 180 ppm, Days of Treatment 2): 0% | Approximate Percent Mortality, egg test (grape phylloxera eggs; CNMA 180 ppm, Days of Treatment 3): 0% | Approximate Percent Mortality, egg test (grape phylloxera eggs; CNMA 180 ppm, Days of Treatment 4): 47% | Approximate Percent Mortality, egg test (grape phylloxera eggs; CNMA 180 ppm, Days of Treatment 5): 72% | Approximate Percent Mortality, egg test (grape phylloxera eggs; CNMA 320 ppm, Days of Treatment 1): 100% | Approximate Percent Mortality, egg test (grape phylloxera eggs; CNMA 320 ppm, Days of Treatment 2): 37% | Approximate Percent Mortality, egg test (grape phylloxera eggs; CNMA 320 ppm, Days of Treatment 3): 28% | Approximate Percent Mortality, egg test (grape phylloxera eggs; CNMA 320 ppm, Days of Treatment 4): 85% | Approximate Percent Mortality, egg test (grape phylloxera eggs; CNMA 320 ppm, Days of Treatment 5): 100% | approximate egg hatch LD 50 (grape phylloxera eggs; egg tests with CNMA analogs): 320 ppm | time at which an LD50 was observed [1]: 2 h | time at which an LD75 was observed [1]: 24 h | Number of phylloxera per root piece (phylloxera Biotype A; 1 K CNMA): 637 | Number of phylloxera per root piece (phylloxera Biotype A; 10 K CNMA): 102 | phylloxera counted: 1st instar (grape phylloxera; 300 ppm leaf treatment): 0 | phylloxera counted: 2nd instar (grape phylloxera; 300 ppm leaf treatment): 6 | phylloxera counted: 3rd instar (grape phylloxera; 300 ppm leaf treatment): 5 | phylloxera counted: 4th instar (grape phylloxera; 300 ppm leaf treatment): 0 | phylloxera counted: Adults (grape phylloxera; 300 ppm leaf treatment): 4 | phylloxera counted: Eggs (grape phylloxera; 300 ppm leaf treatment): 16 | phylloxera counted: 1st instar (grape phylloxera; 1000 ppm leaf treatment): 0 | phylloxera counted: 2nd instar (grape phylloxera; 1000 ppm leaf treatment): 1 | phylloxera counted: 3rd instar (grape phylloxera; 1000 ppm leaf treatment): 4 | phylloxera counted: 4th instar (grape phylloxera; 1000 ppm leaf treatment): 2 | phylloxera counted: Adults (grape phylloxera; 1000 ppm leaf treatment): 1 | phylloxera counted: Eggs (grape phylloxera; 1000 ppm leaf treatment): 2 | phylloxera counted: 1st instar (grape phylloxera; 3000 ppm leaf treatment): 0 | phylloxera counted: 2nd instar (grape phylloxera; 3000 ppm leaf treatment): 2 | phylloxera counted: 3rd instar (grape phylloxera; 3000 ppm leaf treatment): 1 | phylloxera counted: 4th instar (grape phylloxera; 3000 ppm leaf treatment): 1 | phylloxera counted: Adults (grape phylloxera; 3000 ppm leaf treatment): 0 | phylloxera counted: Eggs (grape phylloxera; 3000 ppm leaf treatment): 0 | phylloxera counted: 1st instar (grape phylloxera; 10,000 ppm leaf treatment): 0 | phylloxera counted: 2nd instar (grape phylloxera; 10,000 ppm leaf treatment): 2 | phylloxera counted: 3rd instar (grape phylloxera; 10,000 ppm leaf treatment): 0 | phylloxera counted: 4th instar (grape phylloxera; 10,000 ppm leaf treatment): 0 | phylloxera counted: Adults (grape phylloxera; 10,000 ppm leaf treatment): 0 | phylloxera counted: Eggs (grape phylloxera; 10,000 ppm leaf treatment): 0 | establishment of new phylloxera populations on roots from treated plants (grape phylloxera; roots taken 1, 2 and 5 weeks after treatment, infested with untreated eggs): not from the CNMA-treated plants
